Source: patent publication US11680297B2, “Activities of multiple cancer-related pathways are associated with BRAF mutation and predict the resistance to BRAF/MEK inhibitors in melanoma cells” (THE JOHNS HOPKINS UNIVERSITY, priority 2013, dated 2023)

Assays:
SK-MEL-24 cells = test: Cell proliferation (MTT) assay; type: cell-based; settings: Homo sapiens, SK-MEL-24, 72 h treatment
Procedure: (§1) After 72 h treatments, cell culture was added with 10 μl of 5 mg/ml MTT agent (3-(4,5-Dimethylthiazol-2-yl)-2,5-diphenyltetrazolium bromide, Sigma St. Louis, Mo.) and incubated for 4 h, followed by addition of 100 μl of 10% SDS solution and a further incubation overnight. The plates were then read on a microplate reader using the test wavelength of 570 nm and the reference wavelength of 670 nm. Five duplicates were done to determine each data point. GI50 was calculated as previously reported (21).

RPMI-7951 cells = test: Cell proliferation (MTT) assay; type: cell-based; settings: Homo sapiens, RPMI-7951, 72 h treatment
Procedure: as §1

[1] = tested on: PLX4032-resistant melanoma cell lines; settings: two PLX4032-resistant melanoma cell lines; cited from earlier work

In the case of Cn1cnc2c(F)c(Nc3ccc(Br)cc3Cl)c(C(=O)NOCCO)cc21 [AZD6244, selumetinib], the GI50 (SK-MEL-24 cells) is reported as over 1000 nM and the GI50 (RPMI-7951 cells) is reported as over 1000 nM.

In the case of CS(=O)(=O)CCNCc1ccc(-c2ccc3ncnc(Nc4ccc(OCc5cccc(F)c5)c(Cl)c4)c3c2)o1 [Lapatinib], the “effect in combination with PLX4032” value [1] is listed as “apparently synergistic effects”.
